Source: patent US4923963A, “Bradykinin antagonist peptides” (Nova Technology Limited Partnership, priority 1987, dated 1990)
Square brackets hold non-standard residues; d marks the D form. Ends that are not written are not given here. Peptide text beside a SMILES is read from it. 2Thi = N[C@@H](Cc1cccs1)C(=O)O; d2Thi = N[C@H](Cc1cccs1)C(=O)O

Experiments:
isolated rat uterus = format: cell-based
Procedure, shortened: (§1)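 Antagonism of bradykinin-induced contraction in isolated rat uterus (natural or induced estrus) and guinea pig ileum. Antagonist preincubated 30 s before a double-ED50 bradykinin dose, with the dose raised until the response fell to that of a single ED50. pA2 is the negative log molar antagonist concentration achieving this (Schild method).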

[1] = in vivo; cited from earlier work
[2] = test system: isolated guinea pig ileum; format: cell-based; design: pA2 /GPI: activity class: scale not given here; details: for pA2 /GPI: activity class: isolated guinea pig ileum, not quantitated
Procedure, shortened: as §1

pulmonary circulation = details: anesthetized rat; cited from earlier work
rat blood pressure = assay: effects on blood pressure in the anesthetized rat (RBP), intraaortic and intravenous bolus; format: in vivo; design: RBP-IA: activity class / RBP-IV: activity class: scale not given here
Description: The in vivo effects of bradykinin antagonists on blood pressure in the anesthetized rat are determined according to the assay described by Roblero, Ryan and Stewart (Res. Commun. Pathol. Pharmacol. 6:207, 1973). The antagonists also produce inhibition of the bradykinin response when injected as a bolus admixture of bradykinin plus antagonist by either the ia or iv route of administration.

| Compound | pD2 value (negative log of dose causing half maximal contraction) (isolated rat uterus; rat uterus) | half life in the systemic circulation [1] | pD2 value (negative log of dose causing half maximal contraction) ([2]; guinea pig ileum) | destruction on a single passage through the pulmonary circulation (pulmonary circulation) | pA2 /RUT: agonist potency as percent of BK potency (isolated rat uterus) | % DESTR (metabolic breakdown of BK-like agonists in RBP assay) (rat blood pressure; rat, in vivo) | RBP-IA: agonist potency as percent of BK potency (rat blood pressure; rat, in vivo) | RBP-IV: agonist potency as percent of BK potency (rat blood pressure; rat, in vivo, iv) | pA2 /GPI: activity class [2] | pA2 /RUT: activity class (isolated rat uterus; isolated rat uterus, not quantitated) | RBP-IA: activity class (rat blood pressure; rat blood pressure, intraaortic bolus) | RBP-IV: activity class (rat blood pressure; rat blood pressure, intravenous bolus) |
| --- | --- | --- | --- | --- | --- | --- | --- | --- | --- | --- | --- | --- |
| RPPGFSPFR [bradykinin, Arg-Pro-Pro-Gly-Phe-Ser-Pro-Phe-Arg] | 7.9 | less than 30 seconds | 7.4 | 98-99% |  |  |  |  |  |  |  |  |
| N=C(N)NCCC[C@H](N)C(=O)N1CCC[C@H]1C(=O)N1CCC[C@H]1C(=O)NCC(=O)N[C@@H](Cc1cccs1)C(=O)N[C@@H](CO)C(=O)N[C@H](Cc1ccccc1)C(=O)N[C@@H](Cc1cccs1)C(=O)N[C@H](CCCNC(=N)N)C(=O)O [Example 41, Arg-Pro-Pro-Gly-Thi-Ser-DPhe-Thi-DArg] (H-RPPG[2Thi]S[dF][2Thi][dR]-OH) |  |  |  |  | 0.01% | 77% | 0.1% | 0.6% | 0 |  |  |  |
| N=C(N)NCCC[C@@H](N)C(=O)N[C@H](Cc1cccs1)C(=O)N1CCC[C@H]1C(=O)N1CCC[C@H]1C(=O)NCC(=O)N[C@@H](Cc1ccccc1)C(=O)N[C@@H](CO)C(=O)N[C@H](Cc1cccs1)C(=O)N[C@@H](Cc1ccccc1)C(=O)N[C@@H](CCCNC(=N)N)C(=O)O [Example 35, DArg-DThi-Pro-Pro-Gly-Phe-Ser-DThi-Phe-Arg] (H-[dR][d2Thi]PPGFS[d2Thi]FR-OH) |  |  |  |  |  |  |  |  | 0 | 0 | 0 | 0 |
